Consider 9 compounds from PubChem BioAssay (NCI).

The GI50 is the concentration at which growth is held to half of that of the control. A word on the TGI: it is the concentration at which net growth stops. Higher therefore signals less potent growth arrest.

Common to all, as to assay: DTP human tumour cell line panel, 48 h
Experiment [1] has as its system OVCAR-3 ovarian.
For experiment [2], the system named is NCI-H460 lung.
Experiment [3] relates to TK-10 renal.
Experiment [4] concerns A549 NSCLC.
Experiment [5] relates to RXF 393 renal.
Experiment [6] concerns ACHN renal.
In experiment [7] the test system is NCI/ADR-RES ovarian.
For experiment [8], the system named is MALME-3M melanoma.
In experiment [9] the test system is KM12 colon.
Experiment [10] deals with M14 melanoma.

Values joined by “and” are separate entries in the source; they are usually repeats but may differ in a detail not shown here. Equal entries are not always repeated.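 Interpolation was linear, between the two tested concentrations surrounding the appropriate level; five concentrations were tested over 48 hours in 96-well plates. GI50: concentration for 50% inhibition of growth. Definition used: TGI = concentration required for complete inhibition of growth.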

Consider `Cc1ccc(Nc2nccc(N(C)c3ccc4c(C)n(C)nc4c3)n2)cc1S(N)(=O)=O`, for which the GI50 is 7.93 µM and 6.42 µM and 15.2 µM in [1]; 4.48 µM and 2.76 µM and 6.34 µM in experiment [2]; 2.05 µM and 9.87 µM in experiment [3]; 4.63 µM and 3.58 µM and 10 µM in [4]; 2.43 µM and 0.634 µM and 2.41 µM in [5]; 4.08 µM and 3.12 µM and 4.98 µM in [6]. Further, the GI50 in experiment [7] is 45.8 µM and 23.1 µM; in experiment [9], 5.01 µM and 2.6 µM and 5.56 µM. Further, the TGI is > 100 µM and > 10 µM and 77.9 µM in experiment [1]; greater than 100 µM in [2]; > 10 µM and 77.3 µM in [3]; greater than 100 µM in experiment [4]; greater than 100 µM in experiment [6]; greater than 100 µM in experiment [7]. The concentration for total growth inhibition (TGI) was greater than 74.4 µM in [8]; > 100 µM and > 10 µM and 27 µM in experiment [9].
For `COc1cc(C2CC(c3cccc(Nc4ccnc5cc(Cl)ccc45)c3)=NN2c2ccc(Cl)cc2)cc(OC)c1OC` (configuration not stated), the GI50 is 3.72 µM in experiment [1]; 0.772 µM in experiment [2]; 0.63 µM in [10]; 3.27 µM in [3]; 2.72 µM in experiment [4]; 2.42 µM in experiment [5]. The GI50 was 1.48 µM in experiment [6], 3.18 µM in [7], 21.9 µM in [8] and 0.818 µM in experiment [9]. In addition, the TGI in experiment [1] was greater than 100 µM; in experiment [2] it was greater than 100 µM; in experiment [10], 13.8 µM; in [3], 19.1 µM; in experiment [4] it was greater than 100 µM; in experiment [5], 34.4 µM. Besides, the TGI in [6] was greater than 100 µM; in [7] it was greater than 100 µM; in experiment [8], greater than 100 µM; in [9], 93.6 µM.
Turning to `NC(=NCc1ccccc1)C(N=Nc1ccccc1)C(=O)NCc1ccccc1` (configuration not stated), the GI50 was 1.93 µM in experiment [1]; 2.37 µM in [2]; 5.71 µM in experiment [10]; 3.05 µM in experiment [4]; 12.9 µM in experiment [5]; 18.1 µM in experiment [6]. The values for the GI50 in experiment [7], in [8] and in experiment [9] were 6.46 µM, 21.5 µM and 2.04 µM, respectively. Also, the total growth inhibition concentration (TGI) came out at 3.75 µM in [1]; 6.18 µM in experiment [2]; 22.3 µM in experiment [10]; 10.1 µM in [4]; 27 µM in [5]; 39.3 µM in experiment [6]. The figures for the TGI in [7], in experiment [8] and in experiment [9] were 23.8 µM, 48.2 µM and 4.65 µM, respectively.
As to `COc1cc(Oc2c(C)c(Cl)c(OC)c(Cl)c2OC)c2c(c1Cl)COC2=O`, the total growth inhibition concentration (TGI) in [2] is greater than 100 µM; in experiment [10] it was greater than 100 µM; in experiment [3], greater than 100 µM; in experiment [4] it was greater than 100 µM; in experiment [5] it was greater than 100 µM; in [6], 62.9 µM. Moreover, the TGI in [7], in [8] and in experiment [9] was greater than 100 µM each time.
For the compound `COc1ccc(/C=C2\CN(C(=O)C(Cl)Cl)C/C(=C\c3ccc(OC)cc3)C2=O)cc1`, the GI50 is 2.57 µM in [4]; 1.11 µM in experiment [5]; 1.67 µM in [6]; 2 µM in experiment [7]; 1.92 µM in [8]; 0.332 µM in experiment [9]. The TGI in experiment [4] was greater than 100 µM; in [5], 2.37 µM; in [6], 4.7 µM; in experiment [7] it was 15.1 µM; in experiment [8] it was 4.61 µM; in experiment [9], 1.16 µM.
On to `CCN1CCC(Nc2ccnc3cc(Cl)ccc23)CC1`, for which the GI50 in [1] was 24.8 µM; in experiment [2] it was 28.7 µM; in experiment [10] it was 14.4 µM; in [4], 33.9 µM; in experiment [5] it was 32.9 µM; in [6], 33.9 µM. Further, the GI50 was 44.8 µM in [7], 20.7 µM in [8] and 25.2 µM in experiment [9]. Moreover, the concentration for total growth inhibition (TGI) in [1] is greater than 100 µM; in experiment [2] it was greater than 100 µM; in [10] it was 29.3 µM; in experiment [4] it was greater than 100 µM; in experiment [5] it was greater than 100 µM; in experiment [6], greater than 100 µM. The results for the TGI in [7], in experiment [8] and in [9] were greater than 100 µM, 40.4 µM and greater than 100 µM, respectively.
In the case of `CCCc1n(Cc2ccc3ccccc3c2)cc[n+]1Cc1ccc2ccccc2c1`, the GI50 in experiment [2] was 1.22 µM; in experiment [10], 1.1 µM; in [3] it was 1.28 µM; in experiment [4] it was 2.67 µM; in experiment [5] it was 1.13 µM; in experiment [6], 3.87 µM. Moreover, the results for the GI50 in [7], in experiment [8] and in experiment [9] were 17.1 µM, 0.876 µM and 1.01 µM, respectively. Moreover, the total growth inhibition concentration (TGI) in [2] was 3.01 µM; in [10], 2.53 µM; in experiment [3], 2.7 µM; in experiment [4], 12.1 µM; in experiment [5], 2.49 µM; in [6], 14.2 µM. The TGI was determined as 44.3 µM in experiment [7], 2.58 µM in [8] and 2.38 µM in experiment [9].
`Cc1c(O)c(N=Nc2nc3ccccc3s2)c2ccccc2c1O`: the GI50 in [1] was 12.3 µM; in experiment [2] it was 28 µM; in experiment [10] it was 33.5 µM; in experiment [3], greater than 50 µM; in [4], 19.8 µM; in experiment [5], 12.5 µM. The GI50 was 19.4 µM in experiment [6], 34.3 µM in experiment [7] and 23.2 µM in experiment [9]. The TGI in [1] was greater than 50 µM; in [2] it was greater than 50 µM; in [10] it was greater than 50 µM; in experiment [3], greater than 50 µM; in experiment [4], greater than 50 µM; in experiment [5], 39.7 µM. For the same compound, the TGI in [6], in [7] and in experiment [9] was greater than 50 µM throughout.
Turning to `COC(=O)C1=C(O)[C@H](C(=O)OC)C2(O)C(C(=O)OC)[C@H](c3ccc(OC(=O)C(C)c4ccccc4)cc3)C[C@@H]1[C@@H]2C(=O)OC` (some centres not stated), the GI50 in experiment [1] is 9.69 µM; in [2], 19.4 µM; in experiment [10], 34.9 µM; in experiment [3] it was 48.6 µM; in experiment [4], 19.4 µM; in experiment [5] it was 13.7 µM. For the same compound, the figures for the GI50 in experiment [6], in [7] and in experiment [9] were 19.2 µM, greater than 50 µM and 10.6 µM, respectively. Further, the concentration for total growth inhibition (TGI) is 21.4 µM in experiment [1]; greater than 50 µM in experiment [2]; greater than 50 µM in [10]; greater than 50 µM in experiment [3]; greater than 50 µM in experiment [4]; greater than 50 µM in [5]. In addition, the TGI was greater than 50 µM in experiment [6], greater than 50 µM in experiment [7] and 31.4 µM in experiment [9].
